Earlier results, collected in patent EP1693447A1, “Procedure for the preparation of superoxide dismutase” (Gnosis S.p.A., priority 2005, dated 2006).

Tested on: superoxide dismutase
Conditions: SOD currently on the market

Substance: Bovine liver - PEG superoxide dismutase - freeze-dried powder: type of SOD currently on the market, PEG superoxide dismutase
- superoxide dismutase units/mg of protein: Bovine liver - PEG superoxide dismutase - freeze-dried powder ≥ 1,350 units/mg of protein
